Strand notation (5' to 3'): a small letter for the sugar, then the base; units joined by * are phosphorothioate-linked, units joined directly phosphodiester-linked; [ ] holds rarer units or linkages, { } end groups; capitals alone tell only the bases. e = 2'-O-(2-methoxyethyl) (MOE); k = constrained ethyl (cEt); [5mC] = 5-methylcytosine; d = 2'-deoxy (DNA); m = 2'-O-methyl
System: Yap1 mRNA
Assay: Antisense inhibition of human Yap1 in SNU-449 cells by modified oligonucleotides, single dose (Example 5, RTS36584)
Type: cell-based
Description: Modified oligonucleotides with additional chemistry modifications were designed to target a Yap1 nucleic acid and were tested for their effect on Yap1 mRNA level in SNU-449 cells. The modified oligonucleotides were tested in a series of experiments that had similar culture conditions. Cultured SNU-449 cells at a density of 10,000 cells per well were treated using free uptake with 2,000 nM of modified oligonucleotide. After a treatment period of approximately 48 hours, RNA was isolated from the cells and Yap1 mRNA levels were measured by quantitative real-time RTPCR. Human primer probe set RTS36584 was used to measure mRNA levels. Yap1 mRNA levels were normalized to total RNA content, as measured by RIBOGREEN®. Results are presented in the tables below as percent control of the amount of Yap1 mRNA relative to untreated control cells (% UTC). The modified oligonucleotides with percent control values marked with an asterisk (*) target the amplicon region of the primer probe set. Additional assays may be used to measure the potency and efficacy of the modified oligonucleotides targeting the amplicon region.
Several different chemistry modifications were tested, which are specified in the Chemistry Notation column of the tables below, wherein the notation “d” refers to a 2′-deoxyribose sugar, the notation “s” refers to a phosphorothioate (P═S) internucleoside linkage, the notation “k” refers to a cEt modified sugar, the notation “y” refers to a 2′-O-methyl ribose sugar, the notation “e” refers to a MOE modified sugar, and the notation “^mC” refers to a 5-methylcytosine.
“Start site” indicates the 5′-most nucleoside to which the gapmer is targeted in the human gene sequence. “Stop site” indicates the 3′-most nucleoside to which the gapmer is targeted human gene sequence. […] Activity of the modified oligonucleotide may be defined in a different experiment.

[1] = Table 51, Yap1 mRNA remaining as percent of untreated control (UT), SNU-449 cells, single dose
[2] = Table 41, SNU-449 cells, 10,000 cells per well, free uptake, 2,000 nM modified oligonucleotide, approximately 48 hours, RTS36584, normalized to RIBOGREEN, Yap1 mRNA relative to untreated control cells
[3] = Yap1 mRNA, percent of untreated control, modified oligonucleotides targeting SEQ ID NO: 1 and 2, Table 47
[4] = Table 52, Yap1 mRNA, modified oligonucleotides targeting SEQ ID NO: 1 and 2
[5] = Table 50, Yap1 mRNA remaining as percent of untreated control (UT), SNU-449 cells, single dose
[6] = Table 42 (separate experiment), SNU-449 cells, 10,000 cells per well, free uptake, 2,000 nM modified oligonucleotide, approximately 48 hours, RTS36584, normalized to RIBOGREEN, Yap1 mRNA relative to untreated control cells
[7] = Table 46, Yap1 mRNA as percent of untreated control, SNU-449 cells, single dose
[8] = Table 49, Yap1 mRNA level relative to untreated control, modified oligonucleotides targeting SEQ ID NO.: 1 and 2
[9] = Table 43 experiment, SNU-449 cells, 10,000 cells per well, free uptake, 2,000 nM, approximately 48 hours, RTS36584, Yap1 mRNA normalized to RIBOGREEN, relative to untreated control cells
[10] = Table 48, Yap1 mRNA level relative to untreated control, modified oligonucleotides targeting SEQ ID NO.: 1 and 2
[11] = Table 39, SNU-449 cells, 10,000 cells per well, free uptake, 2,000 nM oligonucleotide, approx. 48 hours, RTS36584, normalized to RIBOGREEN, Yap1 mRNA relative to untreated control
[12] = Table 40 (separate experiment), SNU-449 cells, 10,000 cells per well, free uptake, 2,000 nM oligonucleotide, approx. 48 hours, RTS36584, normalized to RIBOGREEN, Yap1 mRNA relative to untreated control

With “1197264 (kA*kT*kT*dG*mC*dA*dA*dT*d[5mC]*dT*dG*dT*d[5mC]*kT*kG*kA) [Compound 1197264]” the “YAP1 (% UT)” value [1] was 33 % UT.
With “1197312 (kT*kG*kT*dA*mU*dG*dT*d[5mC]*dA*dG*dA*dA*dG*kA*kG*kT; antisense) [Compound 1197312]” the “YAP1 (% UT)” value [1] was 10 % UT.
With “1198637 (kA*kG*dT*dA*dT*dG*dT*dG*dG*d[5mC]*dA*dA*kT*eA*kA*eT; antisense) [Compound 1198637]” the “YAP1 (% UTC)” value [2] was 64 % UTC.
For “1009328 (kT*kA*kT*dA*dT*dT*dA*dG*dA*dG*dT*dA*dT*kG*kT*kG; antisense) [Compound 1009328]”, the “YAP1 (% UT)” value [3] was 67 % UT.
For “1200794 (kA*kG*kA*dG*dT*mA*dT*dG*dT*dG*dG*d[5mC]*dA*kA*kT*kA; antisense) [Compound 1200794]”, the “YAP1 (% UT)” value [1] was 18 % UT.
In the case of “1198524 (kT*kG*dT*dA*dT*dG*dT*d[5mC]*dA*dG*dA*eA*kG*eA*kG*eT; antisense) [Compound 1198524]”, the “YAP1 (% UTC)” value (Table 44 experiment, SNU-449 cells, 10,000 cells per well, free uptake, 2,000 nM, approximately 48 hours, RTS36584, Yap1 mRNA normalized to RIBOGREEN, relative to untreated control cells) is reported as 3 % UTC.
For “1200839 (kT*kT*kA*dT*dA*mU*dG*dG*dT*dT*dT*dT*dG*kT*kG*kT; antisense) [Compound 1200839]”, the “YAP1 (% UT)” value [4] was 44 % UT.
In the case of “1197294 (kG*k[5mC]*kA*d[5mC]*mU*dT*dT*dT*dA*d[5mC]*dA*dT*dT*kA*kG*kG; antisense) [Compound 1197294]”, the “YAP1 (% UT)” value [5] is reported as 25 % UT.
With “1198678 (antisense kA*kT*dA*dT*dG*dG*dT*dT*dT*dT*dG*dT*kG*eT*kG*eT) [Compound 1198678]” the “YAP1 (% UTC)” value [6] was 58 % UTC.
In the case of “1198852 (kT*k[5mC]*dA*dG*dA*dT*dT*dT*dA*dG*dG*kA*eT*kG*e[5mC]*kA; antisense) [Compound 1198852]”, the “YAP1 (% UT)” value [7] is reported as 41 % UT.
In the case of “1198334 (kA*kT*kA*dT*dG*dG*dT*dT*dT*dT*dG*dT*kG*eT*kG*eT; antisense) [Compound 1198334]”, the “YAP1 (% UT)” value [8] is reported as 57 % UT.
For “1198708 (kT*kA*dA*dG*dT*dA*dA*dG*dG*dT*dT*dT*k[5mC]*e[5mC]*k[5mC]*eA; antisense) [Compound 1198708]”, the “YAP1 (% UTC)” value [6] was 34 % UTC.
For “1200809 (k[5mC]*kA*k[5mC]*dT*dG*mA*dG*dG*dT*dA*dT*dA*dA*k[5mC]*kT*kG; antisense) [Compound 1200809]”, the “YAP1 (% UT)” value [4] was 69 % UT.
“1198483 (antisense k[5mC]*kA*d[5mC]*dT*dT*dT*dT*dA*d[5mC]*dA*dT*eT*kA*eG*kG*eA) [Compound 1198483]” was tested, and the “YAP1 (% UTC)” value [9] was 31 % UTC.
In the case of “1198251 (kT*k[5mC]*dT*dT*dA*dT*dA*dT*dG*dG*dT*eT*eT*eT*kG*kT; antisense) [Compound 1198251]”, the “YAP1 (% UTC)” value [9] is reported as 83 % UTC.
With “1198792 (antisense kT*eT*kT*dA*dA*dA*dG*dT*dG*dT*dA*dT*eG*eT*k[5mC]*kA) [Compound 1198792]” the “YAP1 (% UTC)” value [2] was 48 % UTC.
With “1198253 (kA*d[5mC]*dT*d[5mC]*dT*dT*dA*dT*dA*dT*dG*eG*eT*eT*kT*kT; antisense) [Compound 1198253]” the “YAP1 (% UTC)” value [9] was 50 % UTC.
“1198806 (antisense kA*kA*dT*dT*dG*dT*d[5mC]*dT*d[5mC]*dA*dT*kG*e[5mC]*k[5mC]*eT*kT) [Compound 1198806]” was tested, and the “YAP1 (% UT)” value [7] was 33 % UT.
In the case of “1198593 (antisense kT*kT*kA*dT*dA*dT*dG*dG*dT*dT*dT*dT*kG*kT*kG*eT) [Compound 1198593]”, the “YAP1 (% UT)” value [5] is reported as 45 % UT.
In the case of “1198356 (kT*kA*kA*dA*dG*dT*dG*dT*dA*dT*dG*dT*k[5mC]*eA*kG*eA; antisense) [Compound 1198356]”, the “YAP1 (% UT)” value [8] is reported as 5 % UT.
“1198820 (kT*kA*dT*dA*dT*dT*dA*dG*dA*dG*dT*kA*eT*kG*eT*kG; antisense) [Compound 1198820]” was tested, and the “YAP1 (% UT)” value [7] was 62 % UT.
“1197232 (antisense kA*kT*kA*dT*mG*dG*dA*dA*dA*dT*dT*dG*dT*k[5mC]*kT*k[5mC]) [Compound 1197232]” was tested, and the “YAP1 (% UT)” value [5] was 55 % UT.
In the case of “1198328 (kA*kT*kT*dT*dA*dG*dG*dA*dT*dG*d[5mC]*dA*kT*eG*kG*eT; antisense) [Compound 1198328]”, the “YAP1 (% UT)” value [10] is reported as 42 % UT.
In the case of “1197223 (antisense kT*kA*kA*dG*dT*dA*dA*dG*dG*dT*dT*dT*d[5mC]*k[5mC]*k[5mC]*kA) [Compound 1197223]”, the “YAP1 (% UT)” value [3] is reported as 11 % UT.
In the case of “1198226 (kG*k[5mC]*dA*d[5mC]*dT*dT*dT*dT*dA*d[5mC]*dA*eT*eT*eA*kG*kG) [Compound 1198226]”, the “YAP1 (% UTC)” value [6] is reported as 23 % UTC.
For “1197254 (antisense kT*kT*kA*dG*mG*dA*dT*dG*d[5mC]*dA*dT*dG*dG*kT*kT*kT) [Compound 1197254]”, the “YAP1 (% UT)” value [1] was 51 % UT.
With “1095454 (antisense k[5mC]*kT*kG*dA*dG*dG*dT*dA*dT*dA*dA*d[5mC]*kT*kG*kG*eG) [Compound 1095454]” the “YAP1 (% UT)” value [5] was 47 % UT.
In the case of “1198556 (antisense kT*kA*kT*dT*dA*dG*dA*dG*dT*dA*dT*dG*kT*kG*kG*e[5mC]) [Compound 1198556]”, the “YAP1 (% UT)” value [8] is reported as 25 % UT.
For “1198385 (kA*dT*dA*dT*dT*dA*dG*dA*dG*dT*dA*kT*eG*kT*eG*kG; antisense) [Compound 1198385]”, the “YAP1 (% UTC)” value [11] was 30 % UTC.
“1198228 (kA*kA*dG*d[5mC]*dA*d[5mC]*dT*dT*dT*dT*dA*e[5mC]*eA*eT*kT*kA) [Compound 1198228]” was tested, and the “YAP1 (% UTC)” value [6] was 54 % UTC.
“1095482 (antisense k[5mC]*kT*dG*dA*dG*dG*dT*dA*dT*dA*dA*d[5mC]*kT*eG*kG*eG) [Compound 1095482]” was tested, and the “YAP1 (% UTC)” value [6] was 72 % UTC.
With “1198723 (kA*eG*kT*dA*dT*dG*dT*dG*dG*d[5mC]*dA*dA*eT*eA*kA*kT; antisense) [Compound 1198723]” the “YAP1 (% UTC)” value [12] was 57 % UTC.
In the case of “1197239 (antisense kT*kG*kA*dG*mG*dT*dA*dT*dA*dA*d[5mC]*dT*dG*kG*kG*k[5mC]) [Compound 1197239]”, the “YAP1 (% UT)” value [1] is reported as 47 % UT.
In the case of “1198470 (antisense kT*kA*dT*dT*dA*dG*dA*dG*dT*dA*dT*eG*kT*eG*kG*e[5mC]) [Compound 1198470]”, the “YAP1 (% UTC)” value [9] is reported as 17 % UTC.
For “1198596 (antisense k[5mC]*kT*k[5mC]*dT*dT*dA*dT*dA*dT*dG*dG*dT*kT*kT*kT*eG) [Compound 1198596]”, the “YAP1 (% UT)” value [5] was 16 % UT.
For “1198448 (kA*dG*dT*dA*dA*dG*dG*dT*dT*dT*d[5mC]*k[5mC]*e[5mC]*kA*eG*kA) [Compound 1198448]”, the “YAP1 (% UTC)” value [11] was 36 % UTC.
“1198719 (kG*eG*kA*dA*dA*dT*dT*dG*dT*d[5mC]*dT*d[5mC]*eA*eT*kG*k[5mC]; antisense) [Compound 1198719]” was tested, and the “YAP1 (% UTC)” value [12] was 14 % UTC.
In the case of “1197203 (antisense kA*kA*k[5mC]*dT*d[5mC]*dT*dT*dA*dT*dA*dT*dG*dG*kT*kT*kT) [Compound 1197203]”, the “YAP1 (% UT)” value [10] is reported as 68 % UT.
In the case of “1198849 (kG*kA*dT*dT*dT*dA*dG*dG*dA*dT*dG*k[5mC]*eA*kT*eG*kG; antisense) [Compound 1198849]”, the “YAP1 (% UT)” value [7] is reported as 42 % UT.
For “1198241 (kT*kT*dT*dA*dG*dG*dA*dT*dG*d[5mC]*dA*eT*eG*eG*kT*kT; antisense) [Compound 1198241]”, the “YAP1 (% UTC)” value [9] was 32 % UTC.
“1198925 (k[5mC]*kT*dT*dT*dG*dG*dA*dA*dG*dA*dT*k[5mC]*dT*kG*dA*kA; antisense) [Compound 1198925]” was tested, and the “YAP1 (% UTC)” value (Table 45, Yap1 mRNA as percent of untreated control, SNU-449 cells, single dose) was 52 % UTC.
“1198651 (kT*kT*dA*d[5mC]*dA*dT*dT*dA*dG*dG*dA*dA*k[5mC]*eA*kA*eG; antisense) [Compound 1198651]” was tested, and the “YAP1 (% UTC)” value [2] was 94 % UTC.
“1198333 (kA*kT*kT*d[5mC]*dA*dG*dA*dT*dT*dT*dA*dG*kG*eA*kT*eG; antisense) [Compound 1198333]” was tested, and the “YAP1 (% UT)” value [10] was 77 % UT.
In the case of “1198833 (kA*kG*d[5mC]*dA*d[5mC]*dT*dT*dT*dT*dA*d[5mC]*kA*eT*kT*eA*kG; antisense) [Compound 1198833]”, the “YAP1 (% UT)” value [7] is reported as 54 % UT.
